The numbers were not newly measured in US8603529B2, “Polynucleotide aptamer-based cross-linked materials and uses thereof” (Smartcells, Inc., priority 2009, dated 2013), which cites them from elsewhere.

SMILES strings stand for the structures.

The target in the series is avidin (Gallus gallus, UniProt P02701).
Chain of avidin (P02701 25-152, species assumed): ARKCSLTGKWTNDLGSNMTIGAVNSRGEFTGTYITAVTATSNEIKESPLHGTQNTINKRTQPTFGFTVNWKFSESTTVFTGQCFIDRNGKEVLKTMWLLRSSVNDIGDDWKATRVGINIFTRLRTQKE

As for `O=C(O)CCCC[C@@H]1SC[C@@H]2NC(=O)N[C@@H]21` [biotin], the “binding constant between biotin and avidin” value was 10^15 M^−1.
